Measurements: patent US20190075797A1, “Safened Herbicidal compositions containing halauxifen or 4-amino-3-chloro-6-(4-chloro-2-fluoro-3-methoxyphenyl)-5-fluoropyridine-2-carboxylic acid and methods of use thereof in centipedegrass” (Dow AgroSciences LLC, priority 2017, published 2019)
Counter-ions that a name gives are not always drawn. Like-named read-outs stand apart in the source and are kept apart here.

Tested on: centipedegrass
Conditions: for centipedegrass injury: dicamba alone, 0 to 10 scale; for Observed Injury: 0-10 scale, 0=no injury, 10=death
Procedure: A trial was initiated Apr. […] Research was conducted as a randomized complete block design (4 reps), with plot size equal to 6 square meters (2 meter width and 3 meter length). This provided a roughly 1.5 foot buffer between experimental units for reference. Herbicide treatments were applied within a water carrier volume of 40 gallons/acre. A two inch rainfall occurred 48 hours prior to initiation (April 17). Time to next rainfall: roughly 1 inch fell during the late night hours of the 21st and early morning of 22nd. Centipedegrass was approximately 90% green cover at time of treatment-almost fully transitioned from winter dormancy. […] Turf injury (0-10 scale, 0=no injury, 10=death), color (1-9 scale, 1=brown, 9=dark green), and density (0-100%) were evaluated 5, 8, 13, 23, 29 and 44 days after treatment (DAT). Data were subject to analysis of variance (alpha=0.05). Means separations were estimated using Student Knewman Keul's test (alpha=0.05) within ARM v.

COc1c(Cl)ccc(Cl)c1C(=O)O [Dicamba MIBPA, N,N-bis(3-aminopropyl)methylamine salt (MIBPA) of dicamba]
centipedegrass injury (23 DAT, regardless of rate): < 0.8 | centipedegrass injury (29 DAT, across all rates): 0 | Observed Injury (Dicamba MIBPA 0.12 lb ae/a alone, 5 DAA): 0.0 | Observed Injury (Dicamba MIBPA 0.12 lb ae/a alone, 8 DAA): 0.0 | Observed Injury (Dicamba MIBPA 0.12 lb ae/a alone, 13 DAA): 0.0 | Observed Injury (Dicamba MIBPA 0.12 lb ae/a alone, 23 DAA): 0.38 | Observed Injury (Dicamba MIBPA 0.12 lb ae/a alone, 29 DAA): 0.00 | Observed Injury (Dicamba MIBPA 0.12 lb ae/a alone, 44 DAA): 0.25 | Observed Injury (Dicamba MIBPA 0.24 lb ae/a alone, 5 DAA): 0.0 | Observed Injury (Dicamba MIBPA 0.24 lb ae/a alone, 8 DAA): 0.0 | Observed Injury (Dicamba MIBPA 0.24 lb ae/a alone, 13 DAA): 0.0 | Observed Injury (Dicamba MIBPA 0.24 lb ae/a alone, 23 DAA): 0.38 | Observed Injury (Dicamba MIBPA 0.24 lb ae/a alone, 29 DAA): 0.00 | Observed Injury (Dicamba MIBPA 0.24 lb ae/a alone, 44 DAA): 0.38 | Observed Injury (Dicamba MIBPA 0.36 lb ae/a alone, 5 DAA): 0.0 | Observed Injury (Dicamba MIBPA 0.36 lb ae/a alone, 8 DAA): 0.0 | Observed Injury (Dicamba MIBPA 0.36 lb ae/a alone, 13 DAA): 0.0 | Observed Injury (Dicamba MIBPA 0.36 lb ae/a alone, 23 DAA): 0.75 | Observed Injury (Dicamba MIBPA 0.36 lb ae/a alone, 29 DAA): 0.00 | Observed Injury (Dicamba MIBPA 0.36 lb ae/a alone, 44 DAA): 0.50
